Patent US12533348B2, “Ferroportin-inhibitors for the use in the treatment of transfusion-dependent beta-thalassemia (TDT)” (Vifor (International) AG, priority 2019, dated 2026)

System: Hbb^th3/+ mice
Assay: Erythrocyte membrane-associated α-globin detection and quantification (TAU gel electrophoresis, densitometry)
Format: in vivo, mouse
Details: Hbb^th3/+ animals vs vehicle-treated; TAU gel electrophoresis (FIG. 1)
Source text: Fresh EDTA-blood samples of mice from each group were pooled (blood from 2 mice/pool), lysed, and membrane lipids were extracted, as previously described (Sorensen S, Rubin E, Polster H, Mohandas N, Schrier S. “The role of membrane skeletal-associated alpha-globin in the pathophysiology of beta-thalassemia.” Blood. 1990 Mar. 15; 75(6):1333-6). The insoluble membrane fraction was separated by electrophoresis on triton acetic acid urea (TAU) gels and visualized by Coomassie staining (Alter B et al, Br J Haematol 44:527, 1980). The signal intensity of the α-globin bands was quantified by densitometry using LAS-4000 Image Analyzer with Multi Gauge v.3 software (GE Healthcare Life Sciences).
Blood samples are washed three times with ice cold DPBS in the presence of 1 mM EDTA and lysed in an ice-cold hypotonic lysis buffer (5 mM sodium phosphate, pH 7.6 containing Complete Ultra protease inhibitors, Roche). The soluble Hb is collected to serve as standard on the gel. The erythrocyte ghosts are further washed three times by resuspending in hypotonic lysis buffer and centrifugation at 21'000×g. Membrane lipids are extracted in 50 mM sodium borate pH 8, 1 mM EDTA, 0.5% Triton X-100 (Sigma-Aldrich) and protease inhibitors. […]

O=C(NCc1ncccc1F)c1coc(CCNCCc2nc3ccccc3[nH]2)n1 [Fpn127]
levels of toxic α-globin/heme aggregates in RBC membrane skeleton preparations: significant dose-dependent decrease
